Experimental data as given in patent publication US20120184590A1, “FORMULATIONS OF INDOLE-3-CARBINOL DERIVED ANTITUMOR AGENTS WITH INCREASED ORAL BIOAVAILABILITY” (UNIVERSITY OF KANSAS, priority 2009, published 2012).
Where “and” joins values, the source holds several entries; their conditions need not be identical. Equal values may be shown once. Entries after “also recorded” stand apart in the source; their conditions may differ. Read-outs that look alike come from different tables or passages of the source. Marks after values point to notes of the source that are not given here.

Tests used:
[1] = Pharmacokinetics of SR13668 in dogs after i.v. and oral gavage dosing; type: in vivo, beagle dogs; settings: for Fabs F/(1-ER): blood; for bioavailability: beagle (dogs), across all oral groups, dogs and monkeys; for Vd/F: read-out: VZ/F
Source text: Four non-naïve male beagle dogs (approximately 3 years of age; Ridglan Farms Inc. Mt. Horeb, Wis.) and four non-naïve male cynomolgus monkeys [cynos (macaca fasicularis); approximately 7 to 8 years of age; Charles River Laboratories, Inc., Houston, Tex.] were used in this study. Prior to experimental initiation for the present study, the attending veterinarian certified that the animals were healthy and free from disease and parasites.
(§1) For both species, each animal was part of each experimental group, with a 7-day interval between treatments to allow for washout of the dosing formulation and its effects. Dosing formulations of SR13668 were administered by oral gavage (intragastric) or intravenous (i.v.) injection as a single dose or once daily for seven consecutive days. Oral to doses were administered at a dosing volume of 5 mL/kg of body weight, while intravenous doses were administered at a dosing volume of 0.5 mL/kg of body weight. Dogs were dosed with 93.6 mg/m^2 SR13668 intravenously in DMSO:PEG300 15:85 (v/v) or orally in Solutol® vehicle (two groups, fed and after an overnight fast). Monkeys were dosed with 84.2 mg/m^2 SR13668 intravenously in DMSO:PEG300 15:85 (v/v) or orally (336.7 mg/m^2 SR13668 for the oral high dose group) in PEG400:Labrasol® 1:1 (v/v) or Solutol® vehicles. Vehicle control groups were used to assess the tolerability of the vehicle and for clinical pathology evaluations.
Blood samples were collected from each animal at 10 time points (0, 0.25, 0.5, 1, 2, 4, 6, 8, 12 and 24 hours post-dose) during the first and last 24-hour segment of each dosing regimen. For single intravenous dose experiments, samples were collected during the 24-hour post-dose period only. Samples were transferred to Vacutainer tubes containing ethylenediaminetetraacetic acid (EDTA; Fisher Scientific, Pittsburgh, Pa.). The tubes were inverted several times to mix and then placed on ice until storage or centrifugation for plasma preparation. After centrifugation, the plasma was transferred into storage tubes (0.5 mL), which were placed on dry ice and then stored frozen (approximately −70° C.).
Levels of SR13668 in plasma and blood were measured using a tandem mass to spectrometer (API 3000; Applied Biosystems/MDS Sciex, Foster City, Calif.) equipped with a high performance liquid chromatograph (Agilent 1200; Agilent Technologies, Wilmington, Del.). For SR13668 determination, a 100 μL blood or plasma aliquot was mixed with 1 mL of acetonitrile (ACN; Sigma-Aldrich, St. Louis, Mo.). After vortex-mixing for one minute, the sample was centrifuged at 4° C. and 7000 RPM for 10 minutes to remove precipitated proteins, and the supernatant was transferred to a clean tube and dried under nitrogen flow at room temperature (approximately 25° C.). After the evaporation was completed, the residue was reconstituted in 500 μL of ACN/water (v/v 70:30), and vortex-mixed and centrifuged again. An aliquot of the resulting supernatant was transferred to an autosampler tube for instrumental analysis.
A freshly prepared SR13668 standard curve was analyzed along with samples on each day of analysis. The chromatographic column was a Luna 3μ C18(2) 110 Å 30×2.0 mm (Phenomenex, Torrance, Calif.). The column temperature was maintained at 25° C., and a flow rate of 0.30 mL/min was used. The mobile phase consisted of MPA: formic acid in water (0.05%, v/v) and MPB: formic acid in ACN (0.05%, v/v). The mobile phase gradient was as follows: after injection, initial conditions with MPA at 40% were held for 0.01 min, decreased to 5% and held constant for 3 min, returning to initial conditions for another 3 min of re-equilibration time. Retention time of SR13668 was approximately 2.4 min. Total run time was 6 min. A turbo ion spray interface was used as the ion source operating in negative ion mode. Acquisition was performed in multiple reaction monitoring mode using ions 429.15 (Q1) and 414.12 (Q3) Dalton. […]

[2] = Clinical observations and clinical pathology in dogs; type: in vivo, beagle dogs; settings: for ALT / AST / LDH: day 2 following a single dose
Method: as §1
At the end of each dosing period, the animals were examined for detailed clinical signs and symptoms (i.e., alterations of teeth, nose, eyes, perineum, pelage and body orifices; changes in appearance or behavior) and/or presence of any tissue masses. Body weights were recorded prior to treatment and daily during each testing interval. Quantitative (grams/day) food consumption data were recorded for dogs on a daily basis during each testing interval. Qualitative food consumption observations were recorded for monkeys on a daily basis during each testing interval. Blood samples for clinical pathology (clinical chemistry, hematology, and coagulation) parameter evaluation were collected from dogs and monkeys prior to dosing and on Days 2 and 8 post-dose, as well as from monkeys on Days 15 and 30 post-dose.

[3] = dogs, whole blood, 93.6 mg/m^2 (4.68 mg/kg) iv single dose, DMSO:PEG300 15:85 v/v, fed
[4] = male, beagle, dog, plasma, iv, 4.68 mg/kg, dogs, plasma, 93.6 mg/m^2 (4.68 mg/kg) i.v. single dose, DMSO:PEG300 15:85 v/v, fed
[5] = male, beagle, dog, plasma, po, 4.68 mg/kg, dogs, 93.6 mg/m^2 (4.68 mg/kg) oral gavage, Solutol, seventh daily dose, fasted
[6] = male, beagle, dog, plasma, po, 4.68 mg/kg, dogs, 93.6 mg/m^2 (4.68 mg/kg) oral gavage, Solutol, seventh daily dose, fed
[7] = male, beagle, dog, whole blood, iv, 4.68 mg/kg, dogs, whole blood, 93.6 mg/m^2 (4.68 mg/kg) iv single dose, DMSO:PEG300 15:85 v/v, fed
[8] = male, beagle, dog, whole blood, po, 4.68 mg/kg, dogs, 93.6 mg/m^2 (4.68 mg/kg) oral gavage, Solutol, seventh daily dose, fasted
[9] = male, beagle, dog, whole blood, po, 4.68 mg/kg, dogs, 93.6 mg/m^2 (4.68 mg/kg) oral gavage, Solutol, seventh daily dose, fed
[10] = 93.6 mg/m^2 (4.68 mg/kg) iv, DMSO:PEG300 15:85 v/v, fed
[11] = 93.6 mg/m^2 (4.68 mg/kg) oral gavage, Solutol, fasted
[12] = 93.6 mg/m^2 (4.68 mg/kg) oral gavage, Solutol, fed

With `CCOC(=O)c1ccc2[nH]c3c(OC)c4[nH]c5ccc(C(=O)OCC)cc5c4cc3c2c1` [SR13668, 2,10-dicarbethoxy-6-methoxy-5,7-dihydro-indolo-(2,3-b)carbazole] the CL ([1]; dogs, blood clearance, 93.6 mg/m^2 (4.68 mg/kg) oral gavage, Solutol, fasted) was 30.0 mL/min/kg, the CL ([1]; dogs, blood clearance, 93.6 mg/m^2 (4.68 mg/kg) oral gavage, Solutol, fed) was 25.7 mL/min/kg and the “Fabs F/(1-ER)” value ([1]; dogs, 93.6 mg/m^2 (4.68 mg/kg) oral gavage, Solutol, fasted) was 16.5%. For the same molecule, the “Fabs F/(1-ER)” value ([1]; dogs, 93.6 mg/m^2 (4.68 mg/kg) oral gavage, Solutol, fed) was 20.0%, the “F0-∞” value ([1]; dogs, plasma, 93.6 mg/m^2 (4.68 mg/kg) i.v. single dose, DMSO:PEG300 15:85 v/v, fed) was 100% and the “F0-∞” value ([1]; dogs, plasma, 93.6 mg/m^2 (4.68 mg/kg) oral gavage, Solutol, seventh daily dose, fasted) was 13.3 ± 4.0%. The CL/F [1, 3] was 0.244 ± 0.034^a,h L/hr/kg, the “F0-∞” value [1, 3] was 100% and the “F0-∞” value ([1]; dogs, whole blood, 93.6 mg/m^2 (4.68 mg/kg) oral gavage, Solutol, seventh daily dose, fasted) was 14.2 ± 4.5% and 14.2%. For the same molecule, the “F0-∞” value ([1]; dogs, whole blood, 93.6 mg/m^2 (4.68 mg/kg) oral gavage, Solutol, seventh daily dose, fed) was 17.2 ± 4.3^h,i % and 17.2%, the “ER CLiv/Q” value ([1]; dogs, iv blood clearance over hepatic blood flow 30.9 mL/min/kg) was 0.14 and the “effect of fed or fasted condition on bioavailability” value ([1]; dogs, oral gavage, Solutol) was “did not have an effect”. For the same molecule, the bioavailability ([1]; male, dog, plasma, read-out: plasma oral bioavailability, range) was 0.7 to 14.6%, the bioavailability ([1]; male, dog, whole blood, read-out: blood oral bioavailability, range) was 1.1 to 17.2% and the AUC(0-inf) [1, 4] was 8400 ± 1190 ng·h/mL. For the same molecule, the Cmax [1, 4] was 2360 ± 573 ng/mL, the MRT [1, 4] was 6.3 ± 0.6 h and the Tmax [1, 4] was 0.25 h. It also gave a half-life [1, 4] of 5 ± 0.2 h, a CL/F ([1]; male, beagle, dog, plasma, po, 4.68 mg/kg, dogs, plasma, 93.6 mg/m^2 (4.68 mg/kg) oral gavage, Solutol, seventh daily dose, fasted, read-out: CL/F (converted)) of 76.3 mL/min/kg and a Vd/F ([1]; male, beagle, dog, plasma, po, 4.68 mg/kg, dogs, plasma, 93.6 mg/m^2 (4.68 mg/kg) oral gavage, Solutol, seventh daily dose, fasted) of 64 ± 24 L/kg. The CL/F ([1]; male, beagle, dog, plasma, po, 4.68 mg/kg, dogs, plasma, 93.6 mg/m^2 (4.68 mg/kg) oral gavage, Solutol, seventh daily dose, fed, read-out: CL/F (converted)) was 69.7 mL/min/kg, the Vd/F ([1]; male, beagle, dog, plasma, po, 4.68 mg/kg, dogs, plasma, 93.6 mg/m^2 (4.68 mg/kg) oral gavage, Solutol, seventh daily dose, fed) was 32.4 ± 9.6 L/kg and the AUC(0-inf) [1, 5] was 1100 ± 339 ng·h/mL. For the same molecule, the Cmax [1, 5] was 113 ± 58 ng/mL, the MRT [1, 5] was 12.8 ± 4.2 h and the Tmax [1, 5] was 2.8 ± 1.5 h. For the same molecule, the half-life [1, 5] was 9.7 ± 2.4 h, the AUC(0-inf) [1, 6] was 1240 ± 414 ng·h/mL and the Cmax [1, 6] was 207 ± 48 ng/mL. It also gave an MRT [1, 6] of 7.1 ± 1.1 h, a Tmax [1, 6] of 1.8 ± 0.5 h and a half-life [1, 6] of 5.6 ± 1.4 h. The AUC(0-inf) [1, 7] was 19500 ± 3160 ng·h/mL, the Cmax [1, 7] was 5220 ± 742 ng/mL and the MRT [1, 7] was 6.7 ± 0.6 h. For the same molecule, the Tmax [1, 7] was 0.25 h, the half-life [1, 7] was 5 ± 0.1 h and the CL/F ([1]; male, beagle, dog, whole blood, po, 4.68 mg/kg, dogs, whole blood, 93.6 mg/m^2 (4.68 mg/kg) oral gavage, Solutol, seventh daily dose, fasted, read-out: CL/F (converted)) was 30 mL/min/kg. It also gave a Vd/F ([1]; male, beagle, dog, whole blood, po, 4.68 mg/kg, dogs, whole blood, 93.6 mg/m^2 (4.68 mg/kg) oral gavage, Solutol, seventh daily dose, fasted) of 18.6 ± 7.5 L/kg, a CL/F ([1]; male, beagle, dog, whole blood, po, 4.68 mg/kg, dogs, whole blood, 93.6 mg/m^2 (4.68 mg/kg) oral gavage, Solutol, seventh daily dose, fed, read-out: CL/F (converted)) of 25.7 mL/min/kg and a Vd/F ([1]; male, beagle, dog, whole blood, po, 4.68 mg/kg, dogs, whole blood, 93.6 mg/m^2 (4.68 mg/kg) oral gavage, Solutol, seventh daily dose, fed) of 12.8 ± 4.8 L/kg. For the same molecule, the AUC(0-inf) [1, 8] was 2680 ± 577 ng·h/mL, the Cmax [1, 8] was 277 ± 87 ng/mL and the MRT [1, 8] was 10.9 ± 3.1 h. The Tmax [1, 8] was 2.8 ± 1.5 h, the half-life [1, 8] was 7 ± 1.8 h and the AUC(0-inf) [1, 9] was 3410 ± 1290 ng·h/mL. It also gave a Cmax [1, 9] of 575 ± 152 ng/mL, an MRT [1, 9] of 7.2 ± 0.9 h and a Tmax [1, 9] of 1.8 ± 0.5 h. The half-life [1, 9] was 5.9 ± 1.5 h, the clearance ([1]; male, beagle, dog, whole blood, dogs, blood clearance, 93.6 mg/m^2 (4.68 mg/kg) iv, DMSO:PEG300 15:85 v/v, fed) was 4.07 mL/min/kg and the “adverse treatment-related clinical observations” value [2] was “vomiting in fasted dogs”. For the same molecule, the “effects on body weights, body weight gains or food consumption” value [2] was “No significant treatment-related effects on body weights, body weight gains or food consumption”, the “effects on clinical pathology (clinical chemistry, hematology, coagulation)” value [2] was “did not cause untoward hematology, clinical chemistry, or coagulation effects; also recorded: No treatment-related effects on any clinical pathology variables” and the mortality or morbidity [2] was “no mortalities or morbidity”. The ALT [2, 10] was 41.8 ± 5.4 IU/L, the AST [2, 10] was 30.8 ± 5.2 IU/L and the LDH [2, 10] was 54.8 ± 23 ^c IU/L. It also gave an ALT [2, 11] of 44.8 ± 10 IU/L, an AST [2, 11] of 30.8 ± 7.2 IU/L and an LDH [2, 11] of 56.3 ± 9.4 IU/L. For the same molecule, the ALT [2, 12] was 39.5 ± 4.7 IU/L, the AST [2, 12] was 29.3 ± 3.6 IU/L and the LDH [2, 12] was 30.3 ± 6.2 ^c IU/L.
